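Growth conditions: 96-well plates. Treatment: test compound, 48 hours, 5 concentrations. Analysis: linear interpolation between bracketing concentrations; unreached endpoints set to highest concentration. Abbreviation: GI50, concentration required for 50% inhibition of growth.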 The source made the active and inactive calls. Rule as the data show it: active = GI50 up to about 1.1 µM and inactive = higher.
Assays:
Test in all cases: NCI-60 cell line screen, 48 h
786-0 = tested on: 786-0
A498 = tested on: A498
CCRF-CEM = tested on: CCRF-CEM
COLO 205 = tested on: COLO 205
HL-60 = tested on: HL-60
HT-29 = tested on: HT-29
IGROV-1 = tested on: IGROV-1
M14 = tested on: M14
MCF7 = tested on: MCF7
MDA-MB-435 = tested on: MDA-MB-435
NCI-H522 = tested on: NCI-H522
OVCAR-4 = tested on: OVCAR-4
RPMI-8226 = tested on: RPMI-8226
SF-268 = tested on: SF-268
SK-MEL-5 = tested on: SK-MEL-5
SNB-19 = tested on: SNB-19
TK-10 = tested on: TK-10
UACC-62 = tested on: UACC-62
UO-31 = tested on: UO-31
SK-MEL-2 = tested on: SK-MEL-2

Row | SMILES | GI50 (786-0) | GI50 (A498) | GI50 (CCRF-CEM) | GI50 (COLO 205) | GI50 (HL-60) | GI50 (HT-29) | GI50 (IGROV-1) | GI50 (M14) | GI50 (MCF7) | GI50 (MDA-MB-435) | GI50 (NCI-H522) | GI50 (OVCAR-4) | GI50 (RPMI-8226) | GI50 (SF-268) | GI50 (SK-MEL-5) | GI50 (SNB-19) | GI50 (TK-10) | GI50 (UACC-62) | GI50 (UO-31) | GI50 (SK-MEL-2)
1 | COc1ccc(OC)c(C[P+](c2ccccc2)(c2ccccc2)c2ccccc2)c1 | 3.38 µM (inactive) | 4.36 µM (inactive) | 2.56 µM (inactive) | 1.1 µM (active) | 0.434 µM (active) | 0.45 µM (active) | 0.971 µM (active) | 2.42 µM (inactive) | 2.11 µM (inactive) | 0.984 µM (active) | 9.23 µM (inactive) | 4.01 µM (inactive) | 0.33 µM (active) | 3.72 µM (inactive) | 0.991 µM (active) | 2.67 µM (inactive) | 2.7 µM (inactive) | 0.971 µM (active) | 21.6 µM (inactive) | 
2 | N#Cc1c(O)c(/C=N/c2ncccn2)c(=O)n2c1[nH]c1ccccc12 | > 100 µM (inactive) | > 100 µM (inactive) | > 100 µM (inactive) | > 100 µM (inactive) | > 100 µM (inactive) | > 100 µM (inactive) | > 100 µM (inactive) | > 100 µM (inactive) | 88.9 µM (inactive) | > 100 µM (inactive) | > 100 µM (inactive) | > 100 µM (inactive) | > 100 µM (inactive) | > 100 µM (inactive) | > 100 µM (inactive) | > 100 µM (inactive) | > 100 µM (inactive) |  | > 100 µM (inactive) | > 100 µM (inactive)
3 | N#CCCN(CCC#N)c1ccc(/C=N\c2ccc(F)cc2)cc1 | > 31.3 µM (inactive) | > 100 µM (inactive) | 20.8 µM (inactive) | 14 µM (inactive) | 6.46 µM (inactive) |  | 45.6 µM (inactive) | 1.62 µM (inactive) | > 100 µM (inactive) | 17.3 µM (inactive) | > 100 µM (inactive) | > 49.1 µM (inactive) | > 39.8 µM (inactive) | 35.2 µM (inactive) | 14.5 µM (inactive) | > 100 µM (inactive) | > 24 µM (inactive) | 0.536 µM (active) | 41.8 µM (inactive) | > 16.1 µM (inactive)
4 | COc1ccc(C2=Nn3c(nc4sc5c(c4c3=O)CCCC5)SC2)cc1 | > 100 µM (inactive) | > 100 µM (inactive) | > 100 µM (inactive) | > 100 µM (inactive) | > 100 µM (inactive) | > 100 µM (inactive) | > 100 µM (inactive) |  | > 100 µM (inactive) | > 100 µM (inactive) | > 100 µM (inactive) | > 100 µM (inactive) | > 100 µM (inactive) | > 100 µM (inactive) | > 100 µM (inactive) |  | 57.8 µM (inactive) | > 100 µM (inactive) | > 100 µM (inactive) | 
5 | COC(=O)c1ccccc1/C=C1/Cc2cccc(C)c2C1=O | 36.2 µM (inactive) | > 100 µM (inactive) | > 100 µM (inactive) | > 100 µM (inactive) | > 100 µM (inactive) | > 100 µM (inactive) | > 100 µM (inactive) |  | > 100 µM (inactive) | > 100 µM (inactive) | > 100 µM (inactive) | > 100 µM (inactive) | > 100 µM (inactive) | 73.1 µM (inactive) | 32.8 µM (inactive) |  | > 100 µM (inactive) | 52.2 µM (inactive) | > 100 µM (inactive) | 
6 | O=c1ccc2[n+]([O-])c3ccc(O)cc3oc-2c1 [RESAZURIN] | 12.5 µM (inactive) | 39.2 µM (inactive) | 30 µM (inactive) | 12.9 µM (inactive) | 23.1 µM (inactive) | 19.6 µM (inactive) | 25.2 µM (inactive) | 7.83 µM (inactive) | 4.95 µM (inactive) | 1.89 µM (inactive) | 12.1 µM (inactive) | 23.4 µM (inactive) | 6.01 µM (inactive) | 19.2 µM (inactive) | 2.72 µM (inactive) |  | 36 µM (inactive) | 2.59 µM (inactive) | 1.93 µM (inactive) | 10 µM (inactive)
